Measurements as given in patent publication US8680095B2, “Heterocycle compounds and uses thereof for the prevention or treatment of diseases involving formation of amyloid plaques and/or where a dysfunction of the APP metabolism occurs” (Institut National de la Sante et de la Recherche Medicale …, priority 2009, dated 2014).
Read-outs that look alike come from different tables or passages of the source.

Key:
[1] = tested on: APP-CTFs (CTFα, AICD) in SKNSH-SY5Y APPwt cells; experiment: Western blotting of APP carboxy-terminal fragments (CTFα, AICD) in treated cells; format: cell-based; details: Homo sapiens, 24 h
Experimental: (§1) The human neuroblastoma cell line SKNSH-SY5Y APP^wt is cultured in Dulbecco's modified Eagle medium (Invitrogen) supplemented with 10% fetal calf serum (PAA), 2 mM L-glutamine (Invitrogen), 1 mM non-essential amino acids (Invitrogen), 50 units/ml penicillin/streptomycin (Invitrogen) and 200 μg geneticin (G418; Invitrogen) (selection for cell expressing APP) in a 5% CO2 humidified incubator at 37° C. Cells are seeded into 96-wells plates (20000 cells/well) for cytotoxicity assay and 12-wells plate (300000 cells/well) for western blotting for 18 h.
(§2) For western blotting, cells are incubated with 700 μl/well of each product at 10; 3; 1 and 0.31 μM in a 5% CO2 incubator at 37° C. for 24 h. The following day, culture medium samples are collected for ELISA assay and stored at −80° C. Cells are rinsed very slowly with cold PBS, snap-frozen on dry ice and immediately stored at −80° C.
Cells in twelve-well plates are collected in 50 μl Laemmli Lysis Buffer (pH 6.8, 50 mM Tris Base, 2% SDS, 20% Glycerol, 1 mM sodium pyrophosphate, 1 mM sodium orthovanadate and Protease Inhibitor Cocktail Complete Mini-Roche) per well. Cells are scrapped and lysates sonicated for 5 min.
Protein content is determined using the BCA Method (Pierce). Samples containing equal amounts of protein (35 μg total protein for mice and 20 μg total protein for cells per well) are heated at 85° C. for 2 min after thawing and electrophoresed for 2.45 h at 125 V in a 16% Tricine precast gels according to the protocol supplied with the NuPAGE system (Invitrogen). After size fractionation, the proteins are transferred onto nitrocellulose 0.2 μm pore-size membranes (Invitrogen) in the blot module of the NuPAGE sytem for 1 h at room temperature (RT). Blots are blocked for 1 h in TNT with 0.05% Tween 20 and 5% nonfat milk at RT, incubated overnight at 4° C. with anti-C term APP C1:3-2429 (1:250000) primary antibody and washed four times with TNT before being exposed to peroxidase labeled anti-mouse IgG (H+L) C4 94010 (1:50000; Vector) secondary antibody for […] at 25° C. The immunoreactions are detected with SuperSignal West Pico Chemiluminescent Substrate (Thermo specific, 34077). Images are scanned with LAS-3000 Image System (Global FUJIFILM) and bands quantified by ImageJ 1.37v computer program. The different APP-CTF bands are detected as a function of their molecular mass, as described in Vingtdeux, V., Hamdane, M., Gompel, M. et al. (2005) Phosphorylation of amyloid precursor carboxy-terminal fragments enhances their processing by a gamma-secretase-dependent mechanism. Neurobiol Dis, 20, 625-637. Graphs and statistical analysis of results is performed with Graph Pad Prism (version 4.02) computer program.

β-amyloid 1-42 = experiment: Innotest β-amyloid 1-42 ELISA on SY5Y culture medium; format: cell-based; details: Homo sapiens, 24 h, compared to a control with a value of 100, read-out: Aβ 1 μM*
Experimental: as §1, §2
The β-amyloid 1-42 rate is quantified in SY5Y cells-culture medium by using the Innotest β-amyloid 1-42 (80324 Innogenetics®) according to the manufacturer instructions. Briefly, Fresh culture medium is used to dilute the standard. Culture samples are centrifuged at 200 g at 4° C. during 5 minutes in order to eliminate cell fragments.
First, 75 μl of the conjugate working solution1 (3D6 biotinylated antibody) is added to a 21F12 Ab precoated well. Twenty five μl of pure supernatant samples are then added to the coated well, and incubated for 1 h. Then the plate is washed 5 times with the washing buffer. Then 100 μl of peroxidase-labeled streptavidin (conjugate working solution 2) is added and incubated for 30 min at RT. After washing the plate 5 times, 100 μl of tetramethyl benzidine (substrate working solution) is added onto the plate and incubated for 30 minutes in the dark. The reaction is stopped with 50 μl 0.9N sulfuric acid (stop solution). The absorbance is read at 450 nm.
A sigmoidal curve fitting (four parameter […] curve) is used to calculate the standard curve. The corresponding concentration of β-amyloid (1-42) in pg/ml is determined from the standard curve. Results are expressed in concentration of β-amyloid in pg per μg of total proteins. Graphs and statistic analyses (t Test) are performed with Graph Pad Prism computer program (V0.5).

APP-CTFα = experiment: In vivo mice treatment, western blotting of APP-CTFs in prefrontal cortex; details: C57Bl6 female mice, 12.5, 25, 50 mg/kg intraperitoneally once, prefrontal cortex 24 h after, versus vehicle
Experimental: Test molecules are intraperitoneally injected to 4 month old C57BI6 females mice either at 12.5; 25; 50 mg/kg or vehicule once, and sacrificed 24 h after by decapitation. Brain is immediately removed and Prefrontal Cortex is dissected by using a cold zinc brain matrix. The total dissection time was <3 min from decapitation. Following dissection tissue is frozen in dry ice and then stored at −80° C. for western blotting.
Protein extracts of Prefrontal Cortex samples are prepared in 50 μl Laemmli Lysis Buffer (pH 6.8, 50 mM Tris Base, 2% SDS, 20% Glycerol, 1 mM sodium pyrophosphate, 1 mM sodium orthovanadate and Protease Inhibitor Cocktail Complete Mini-Roche) by trituration of the fragments in a 0.2 ml glass micro tissue grinder. […]
Protein content is determined using the BCA Method (Pierce). […] The immunoreactions are detected with SuperSignal West Pico Chemiluminescent Substrate (Thermo specific, 34077). Images are scanned with LAS-3000 Image System (Global FUJIFILM) and bands quantified by ImageJ 1.37v computer program. The different APP-CTF bands are detected as a function of their molecular mass, as described in Vingtdeux, V., Hamdane, M., Gompel, M. et al. (2005) Phosphorylation of amyloid precursor carboxy-terminal fragments enhances their processing by a gamma-secretase-dependent mechanism. […]

[2] = Cytotoxicity CC50 on MRC-5; format: cell-based; details: human, MRC-5 cells
[3] = AICD, compared to a control with a value of 100, read-out: AlCD 1 μM*
[4] = compared to a control with a value of 100, read-out: CTFα 1 μM*

Row | melting point [°C] | Structure (SMILES) | activity at 1 µM [1, 3] [%] | activity at 1 µM (β-amyloid 1-42) [%] | activity at 1 µM [1, 4] [%] | production of APP-CTFα (optical density, FIG. 1) (APP-CTFα) | CC50 [2] [µM]
1 | – | N#Cc1cc(NCCN2CCCCC2)cc(Nc2ccnc3cc(Cl)ccc23)c1 [compound 77, 3-[(7-chloroquinolin-4-yl)amino]-5-{[2-(piperidin-1-yl)ethyl]amino}benzonitrile] | 618 | 85 | – | – | –
2 | 187 to 188 | Clc1ccc2c(Nc3ccc(N4CCOCC4)c(CN4CCCC4)c3)ccnc2c1 [compound 86, 7-chloro-N-[4-(morpholin-4-yl)-3-(pyrrolidin-1-ylmethyl)phenyl]quinolin-4-amine] | – | – | – | – | –
3 | – | N#Cc1cc(/N=c2\ccn(CCN3CCCCC3)c3cc(Cl)ccc23)cc(NCCN2CCCCC2)c1 [compound 76, 3-({7-Chloro-1-[2-(piperidin-1-yl)ethyl]-1,4-dihydroquinolin-4-ylidene}amino)-5-{[2-(piperidin-1-yl)ethyl]amino}benzonitrile] | – | 76 | – | – | –
4 | – | CN(C)CCCN1CCN(C(=O)c2cc(Nc3ccnc4cc(Cl)ccc34)cc(C(=O)N3CCN(CCCN(C)C)CC3)c2)CC1 [compound 64, N-[3,5-Bis({4-[3-(dimethylamino)propyl]piperazin-1-yl}carbonyl)phenyl]-7-chloroquinolin-4-amine] | 669 | 31 | 106 | – | –
5 | – | Cc1cc(Nc2ccnc3cc(Cl)ccc23)cc(CN2CCCC2)c1N1CCN(C)CC1 [compound 59, 7-Chloro-N-[3-methyl-4-(4-methylpiperazin-1-yl)-5-(pyrrolidin-1-ylmethyl)phenyl]quinolin-4-amine] | 325 | 73 | 629 | – | –
6 | – | N#Cc1cc(N)cc(Nc2cc[n+](CCN3CCCCC3)c3cc(Cl)ccc23)c1 [compound 74, 4-[(3-amino-5-cyanophenyl)amino]-7-chloro-1-[2-(piperidin-1-yl)ethyl]quinolin-1-ium chloride] | – | 44 | – | – | –
7 | – | Oc1c(CN2CCCC2)cc(Nc2ccnc3cc(Cl)ccc23)cc1CN1CCCC1 [compound 66, 4-[(7-Chloroquinolin-4-yl)amino]-2,6-bis (pyrrolidin-1-ylmethyl)phenol] | 886 | 19 | 754 | increases the production of APP-CTFα | –
8 | – | COC(=O)c1cc(Nc2ccnc3cc(Cl)ccc23)cc(C(=O)N2CCN(CCCN(C)C)CC2)c1 [compound 69, Methyl 3-[(7-chloroquinolin-4-yl)amino]-5-({4-[3-(dimethylamino)propyl]piperazin-1-yl}carbonyl)benzoate] | 302 | 46 | 126 | – | –
9 | – | CN1CCN(c2cc(O)cc(Nc3ccnc4cc(Cl)ccc34)c2)CC1 [compound 72, 3-[(7-chloroquinolin-4-yl)amino]-5-(4-methyl-piperazin-1-yl)phenol] | 80 | 100 | 105 | – | –
10 | – | CN1CCN(c2ccc(Nc3ccnc4cc(Cl)ccc34)cc2CNC(C)(C)C)CC1 [compound 56, N-{3-[(tert-butylamino)methyl]-4-(4-methylpiperazin-1-yl)phenyl}-7-chloroquinolin-4-amine] | 823 | 45 | 183 | – | –
11 | – | CN1CCN(c2cc(Nc3ccnc4cc(Cl)ccc34)cc(N3CCN(C)CC3)c2)CC1 [compound 70, N-[3,5-bis(4-methylpiperazin-1-yl)phenyl]-7-chloroquinolin-4-amine] | 515 | – | 687 | – | –
12 | – | CCN(CC)Cc1cc(Nc2ccnc3cc(Cl)ccc23)ccc1F [compound 84, 7-chloro-N-(3-((diethylamino)methyl)-4-fluorophenyl)quinolin-4-amine] | 209 | – | 358 | – | < 10
13 | – | CN1CCN(c2ccc(Nc3ccnc4cc(Cl)ccc34)cc2CN2CCOCC2)CC1 [compound 57, 7-chloro-N-[4-(4-methylpiperazin-1-yl)-3-(morpholin-4-ylmethyl)phenyl]quinolin-4-amine] | 757 | 19 | 194 | – | –
